# According to patent publication US9149416B1, “High deposition cleansing system” (WELLMARK INTERNATIONAL, priority 2008, dated 2015):
# System: adult cat fleas
# Assay: Residual flea efficacy trials on infested cats (Studies A-D)
# Assay type: in vivo
# Conditions: cleansing system 40 mg/kg vs topical at average 225 mg/kg
# Experimental: The efficacy trials were performed using protocols that required the experimental group of infested cats to be compared with an untreated group of similarly infested animals.
# The cleansing emulsion system formulation, containing 0.5% etofenprox was applied to the wet animals at the rate of 8 grams of cleansing system per kg of animal body weight. The 40% etofenprox topical was applied at the rate of 1 ml per cat for weights up to 5 lbs. (2.2 kg) and 2 ml per cat for those weighing greater than 5 lbs. (2.2 kg). The average rate of etofenprox applied to the cleansing system treated cats was 40 mg etofenprox per kg of body weight. The average rate of etofenprox applied to the topical treated cats was 225 mg per kg of body weight.
# All test animals were infested with 100 unfed adult cat fleas prior to treatment. The cats were examined for the presence of live fleas at 24 to 48 hours after treatment. Residual data points were accomplished by infesting the treated animals at 14, 21 and 28 days after treatment. The animals were then examined for the presence of live fleas 48 hours after each infestation.
smiles,measurement,value
CCOc1ccc(C(C)(C)COCc2cccc(Oc3ccccc3)c2)cc1 [Etofenprox],residual adult flea kill / residual efficacy compared with topical,residual efficacy results similar to 225 mg/kg BW rates required for topical formulations
